In patent publication US20040229379A1, “Assay” (priority 2003, published 2004):

Test system: PDHK
Assay: Binding affinity of fluorescent binder structures for PDHK

For Cc1cc(C)n2c1C=C1C=CC(CCC(=O)NCc3ccc(C(=O)N4C[C@H](C)N(C(=O)[C@@](C)(O)C(F)(F)F)C[C@H]4C)cc3)=[N+]1[B-]2(F)F [(IV)], the “binding affinity for PDHK relative to (III/IIIA)” value was “lower binding affinity for PDHK than (III/IIIA)”.
